For the assay, the system named is T1, MbCld.
T1 construct: gene cld; native, soluble protein fraction of chlorate-grown cells; not purified
Briefly: chloride ion selective electrode, initial rates, Michaelis-Menten fit. It counts as biochemical, Magnetospirillum bellicus. The following applies: 10 mM phosphate buffer pH 7.0, 21–23°C; soluble protein fraction. From the text:
chloride ion selective electrode, initial rates, Michaelis-Menten fit on MbCld

What is called Km is the concentration of substrate that gives half-maximal velocity. Turning to `[O-][Cl+]O` [chlorite], the Km worked out at 360 ± 210 µM.

These data come from paper PMC5733030, “Characterizing Isozymes of Chlorite Dismutase for Water Treatment” (Frontiers in Microbiology, 2017).
